# From US10590113B2, “6-hydroxy-4-oxo-1,4-dihydropyrimidine-5-carboxamides as APJ agonists” (priority 2016, dated 2020)
# Target: T1, human APJ receptor (Homo sapiens, UniProt P35414)
# T1 construct: expressed in transfected cells; host or cells: HEK293
# T1 sequence (P35414 1-380): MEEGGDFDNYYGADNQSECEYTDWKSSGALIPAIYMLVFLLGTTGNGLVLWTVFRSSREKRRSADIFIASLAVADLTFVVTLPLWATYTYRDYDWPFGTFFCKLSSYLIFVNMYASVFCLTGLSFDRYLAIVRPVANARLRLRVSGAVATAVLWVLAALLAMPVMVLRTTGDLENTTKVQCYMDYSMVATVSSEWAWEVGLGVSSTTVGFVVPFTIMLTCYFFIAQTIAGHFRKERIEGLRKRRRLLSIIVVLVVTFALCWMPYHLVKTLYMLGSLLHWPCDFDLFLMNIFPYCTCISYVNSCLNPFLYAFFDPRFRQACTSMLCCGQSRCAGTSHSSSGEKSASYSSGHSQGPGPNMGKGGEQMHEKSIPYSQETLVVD
# Experiment: Intracellular cAMP Accumulation Assay (APJ hcAMP, HTRF)
# Assay type: cell-based
# Settings: not given
# Outline: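 Stably transfected HEK293 cells (5,000/well) incubated 30 min at room temperature with serially diluted compound, […] and 2 μM forskolin. cAMP measured by HTRF after 60 min with detection reagents, quantified against a cAMP standard curve; EC50 from variable-slope sigmoidal fit of inhibition of forskolin-stimulated cAMP.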
row,EC50,Structure (SMILES)
1,0.01 to 10 nM,"C=CCCc1nc(=O)c(C(=O)N2CC[C@@H](c3ccccc3)C2)c(O)n1-c1c(OC)cccc1OC [Example 16, (S)-2-(but-3-en-1-yl)-3-(2,6-dimethoxyphenyl)-6-hydroxy-5-(3-phenylpyrrolidine-1-carbonyl)pyrimidin-4(3H)-one]"
2,0.01 to 10 nM,"CCOCc1nc(=O)c(C(=O)N2CC[C@H](c3ccccc3)C2)c(O)n1-c1c(OC)cccc1OC [Example 23, (R)-1-(2,6-dimethoxyphenyl)-2-(ethoxymethyl)-6-hydroxy-5-(3-phenylpyrrolidine-1-carbonyl)pyrimidin-4(1H)-one]"
3,0.01 to 10 nM,"C=CCCc1nc(=O)c(C(=O)N2CC[C@H](c3ccccc3)C2)c(O)n1-c1c(OC)cccc1OC [Example 27, (R)-2-(but-3-en-1-yl)-3-(2,6-dimethoxyphenyl)-6-hydroxy-5-(3-phenylpyrrolidine-1-carbonyl)pyrimidin-4(3H)-one]"
4,0.01 to 10 nM,"CCOCc1nc(=O)c(C(=O)N2CC[C@@H](c3ccccc3)C2)c(O)n1-c1c(OC)cccc1OC [Example 29, (S)-1-(2,6-dimethoxyphenyl)-2-(ethoxymethyl)-6-hydroxy-5-(3-phenylpyrrolidine-1-carbonyl)pyrimidin-4(1H)-one]"

row,Structure (SMILES),EC50
1,"CCCCc1nc(=O)c(C(=O)N2CCC(c3ccc(Cl)cn3)C2)c(O)n1-c1c(OC)cccc1OC (stereo not drawn) [Example 1, 2-Butyl-5-(3-(5-chloropyridin-2-yl)pyrrolidine-1-carbonyl)-1-(2,6-dimethoxyphenyl)-6-hydroxypyrimidin-4(1H)-one]",0.01 to 10 nM

# Same assay, conditions: HEK293 cells stably expressing human APJ receptor; inhibition of forskolin-mediated cAMP production; read-out: Human APJ cAMP EC50 potency range
row,EC50,Structure (SMILES)
1,0.01 to 10 nM,"CCCCc1nc(=O)c(C(=O)N2CC[C@H](c3ccccc3)C2)c(O)n1-c1c(C2CC2)cccc1C1CC1 [Example 2, (R)-2-Butyl-1-(2,6-dicyclopropylphenyl)-6-hydroxy-5-(3-phenylpyrrolidine-1-carbonyl)pyrimidin-4(1H)-one]"
2,0.01 to 10 nM,"CCOCc1nc(=O)c(C(=O)N2CCC(c3ccccn3)C2)c(O)n1-c1c(OC)cccc1OC (stereo not drawn) [Example 3, 1-(2,6-Dimethoxyphenyl)-2-(ethoxymethyl)-6-hydroxy-5-(3-(pyridin-2-yl)pyrrolidine-1-carbonyl)pyrimidin-4(1H)-one]"
3,0.01 to 10 nM,"COc1cccc(OC)c1-n1c(CCC2CC2)nc(=O)c(C(=O)N2CC[C@@H](c3ccccc3)C2)c1O [Example 4, (S)-2-(2-Cyclopropylethyl)-1-(2,6-dimethoxyphenyl)-6-hydroxy-5-(3-phenylpyrrolidine-1-carbonyl)pyrimidin-4(1H)-one]"
4,0.01 to 10 nM,"COc1ccccc1C1CCN(C(=O)c2c(O)n(-c3c(OC)cccc3OC)c(-c3cncc(C)c3)nc2=O)C1 (stereo not drawn) [Example 7, 1-(2,6-dimethoxyphenyl)-6-hydroxy-5-(3-(2-methoxyphenyl)pyrrolidine-1-carbonyl)-2-(5-methylpyridin-3-yl)pyrimidin-4(1H)-one]"

# Same assay, conditions: human APJ, cAMP accumulation; potency range class; read-out: hAPJ cAMP EC50 Potency range
row,EC50,Structure (SMILES)
1,0.01 to 10 nM,"CCCCc1nc(=O)c(C(=O)N2CCC(c3ncc(F)cc3F)C2)c(O)n1-c1c(OC)cccc1OC (single isomer, unassigned) [Example 358, 2-butyl-5-(3-(3,5-difluoropyridin-2-yl)pyrrolidine-1-carbonyl)-1-(2,6-dimethoxyphenyl)-6-hydroxypyrimidin-4(1H)-one]"
2,0.01 to 10 nM,"CCCCc1nc(=O)c(C(=O)N2CCC(c3ncc(F)cc3F)C2)c(O)n1-c1c(OC)cccc1OC (single isomer, unassigned) [Example 359, 2-butyl-5-(3-(3,5-difluoropyridin-2-yl)pyrrolidine-1-carbonyl)-1-(2,6-dimethoxyphenyl)-6-hydroxypyrimidin-4(1H)-one]"
3,0.01 to 10 nM,"CCOCc1nc(=O)c(C(=O)N2CCC(c3ccccc3C#N)C2)c(O)n1-c1c(OC)cccc1OC (single isomer, unassigned) [Example 362, 2-(1-(1-(2,6-dimethoxyphenyl)-2-(ethoxymethyl)-6-hydroxy-4-oxo-1,4-dihydropyrimidine-5-carbonyl)pyrrolidin-3-yl)benzonitrile]"
4,0.01 to 10 nM,"CCOCc1nc(=O)c(C(=O)N2CCC(c3ccccc3C#N)C2)c(O)n1-c1c(OC)cccc1OC (single isomer, unassigned) [Example 363, 2-(1-(1-(2,6-dimethoxyphenyl)-2-(ethoxymethyl)-6-hydroxy-4-oxo-1,4-dihydropyrimidine-5-carbonyl)pyrrolidin-3-yl)benzonitrile]"
5,0.01 to 10 nM,"CCCCc1nc(=O)c(C(=O)N2CCC(c3ccccc3C#N)C2)c(O)n1-c1c(OC)cccc1OC (single isomer, unassigned) [Example 364, 2-(1-(2-butyl-1-(2,6-dimethoxyphenyl)-6-hydroxy-4-oxo-1,4-dihydropyrimidine-5-carbonyl)pyrrolidin-3-yl)benzonitrile]"
6,0.01 to 10 nM,"CCCCc1nc(=O)c(C(=O)N2CCC(c3ccccc3C#N)C2)c(O)n1-c1c(OC)cccc1OC (single isomer, unassigned) [Example 365, 2-(1-(2-butyl-1-(2,6-dimethoxyphenyl)-6-hydroxy-4-oxo-1,4-dihydropyrimidine-5-carbonyl)pyrrolidin-3-yl)benzonitrile]"
7,0.01 to 10 nM,"CCCCc1nc(=O)c(C(=O)N2CCC(c3ncccc3F)C2)c(O)n1-c1c(OC)cccc1OC (single isomer, unassigned) [Example 366, 2-butyl-1-(2,6-dimethoxyphenyl)-5-(3-(3-fluoropyridin-2-yl)pyrrolidine-1-carbonyl)-6-hydroxypyrimidin-4(1H)-one]"

# Same assay, conditions: human APJ, intracellular cAMP accumulation; read-out: hAPJ cAMP EC50 Potency range
row,EC50,Structure (SMILES)
1,0.01 to 10 nM,"COc1cccc(OC)c1-n1c(COC(C)C)nc(=O)c(C(=O)N2CC[C@H](c3ccccc3)C2)c1O [Example 12, (R)-1-(2,6-dimethoxyphenyl)-6-hydroxy-2-(isopropoxymethyl)-5-(3-phenylpyrrolidine-1-carbonyl)pyrimidin-4(1H)-one]"
2,0.01 to 10 nM,"COc1cccc(OC)c1-n1c(CCC(C)C)nc(=O)c(C(=O)N2CC[C@H](c3ccccc3)C2)c1O [Example 14, (R)-1-(2,6-dimethoxyphenyl)-6-hydroxy-2-isopentyl-5-(3-phenylpyrrolidine-1-carbonyl)pyrimidin-4(1H)-one]"
3,0.01 to 10 nM,"COc1cccc(OC)c1-n1c(COC2CC2)nc(=O)c(C(=O)N2CCC(c3cccc(F)c3)C2)c1O (stereo not drawn) [Example 15, 2-(cyclopropoxymethyl)-1-(2,6-dimethoxyphenyl)-5-(3-(3-fluorophenyl)pyrrolidine-1-carbonyl)-6-hydroxypyrimidin-4(1H)-one]"
4,0.01 to 10 nM,"CCc1cccc(CC)c1-n1c(COC(C)C)nc(=O)c(C(=O)N2CC[C@H](c3ccccc3)C2)c1O [Example 17, (R)-3-(2,6-diethylphenyl)-6-hydroxy-2-(isopropoxymethyl)-5-(3-phenylpyrrolidine-1-carbonyl)pyrimidin-4(3H)-one]"
5,0.01 to 10 nM,"COc1cccc(OC)c1-n1c(CCC(C)C)nc(=O)c(C(=O)N2CC[C@@H](c3ccccc3)C2)c1O [Example 24, (S)-1-(2,6-dimethoxyphenyl)-6-hydroxy-2-isopentyl-5-(3-phenylpyrrolidine-1-carbonyl)pyrimidin-4(1H)-one]"

# Same assay, conditions: read-out: hAPJ cAMP EC50 Potency range
row,EC50,Structure (SMILES)
1,0.01 to 10 nM,"CCCCc1nc(=O)c(C(=O)N2CCC(c3ncccc3F)C2)c(O)n1-c1c(OC)cccc1OC (single isomer, unassigned) [Example 367, 2-butyl-1-(2,6-dimethoxyphenyl)-5-(3-(3-fluoropyridin-2-yl)pyrrolidine-1-carbonyl)-6-hydroxypyrimidin-4(1H)-one]"
2,0.01 to 10 nM,"CCCCc1nc(=O)c(C(=O)N2CCC(c3ccc(F)cn3)C2)c(O)n1-c1c(OC)cccc1OC (single isomer, unassigned) [Example 370, 2-butyl-1-(2,6-dimethoxyphenyl)-5-(3-(5-fluoropyridin-2-yl)pyrrolidine-1-carbonyl)-6-hydroxypyrimidin-4(1H)-one]"
3,0.01 to 10 nM,"CCCCc1nc(=O)c(C(=O)N2CCC(c3ccc(F)cn3)C2)c(O)n1-c1c(OC)cccc1OC (single isomer, unassigned) [Example 371, 2-butyl-1-(2,6-dimethoxyphenyl)-5-(3-(5-fluoropyridin-2-yl)pyrrolidine-1-carbonyl)-6-hydroxypyrimidin-4(1H)-one]"
4,0.01 to 10 nM,"CCOCc1nc(=O)c(C(=O)N2CCC(c3ncc(F)cc3F)C2)c(O)n1-c1c(OC)cccc1OC (single isomer, unassigned) [Example 372, 5-(3-(3,5-difluoropyridin-2-yl)pyrrolidine-1-carbonyl)-1-(2,6-dimethoxyphenyl)-2-(ethoxymethyl)-6-hydroxypyrimidin-4(1H)-one]"

row,Structure (SMILES),EC50
1,"COc1cccc(OC)c1-n1c(COC(C)(C)C)nc(=O)c(C(=O)N2CCC(c3ccccc3C#N)C2)c1O (single isomer, unassigned) [Example 368, 2-(1-(2-(tert-butoxymethyl)-1-(2,6-dimethoxyphenyl)-6-hydroxy-4-oxo-1,4-dihydropyrimidine-5-carbonyl)pyrrolidin-3-yl)benzonitrile]",0.01 to 10 nM
2,"COc1cccc(OC)c1-n1c(COC(C)(C)C)nc(=O)c(C(=O)N2CCC(c3ccccc3C#N)C2)c1O (single isomer, unassigned) [Example 369, 2-(1-(2-(tert-butoxymethyl)-1-(2,6-dimethoxyphenyl)-6-hydroxy-4-oxo-1,4-dihydropyrimidine-5-carbonyl)pyrrolidin-3-yl)benzonitrile]",0.01 to 10 nM
